# In patent publication US9566282B2, “Methods for identifying and validating selective anti-cancer stem cell agents” (MCMASTER UNIVERSITY, priority 2011, dated 2017):
# Where a name gives a salt, the structure may show the parent alone.
# Tests used:
# AML-OCI2 and AML-OCI3 [1] = experiment: Induction of apoptosis in AML cancer cell lines (normal nuclei); format: cell-based, human
# AML-OCI2 and AML-OCI3 [2] = experiment: Volumetric cell counts of AML lines treated with DR antagonists or agonists; format: cell-based, human; conditions: 72 h, serum-free conditions
# Method: The number of AML-OCI2 and AML-OCI3 cells present after 72 h treatment with DR antagonists (FIG. 16b) and agonist (FIG. 16c-d) were counted by measuring the number of events within a fixed volume following the grating strategy defined by forward scatter and side scatter clustering, 7AAD− and Hoechst+.
# (§1) Due to the bioavailability of dopamine in fetal bovine serum (FBS) (Little et al., 2002), serum-free conditions were employed to assess the role of DRs in AML. […] DR D2-family and D1-family exert opposing actions on intracellular signaling leading to differential biological effects (Self et al., 1996).
# neoplastic hPSCs [3] = experiment: TaqMan Low-Density Array-qPCR of differentiation genes; format: cell-based, human; conditions: thioridazine-treated neoplastic hPSCs; >2 fold increase
# Method: Cells in specific conditions were collected and RNA was extracted by using RNeasy kit (Qiagen), complementary DNA (cDNA) generation by using SuperScript III® cDNA synthesis kit (Invitrogen), pre-amplification and TaqMan® array reaction (Applied Biosystems) were performed according to manufacturer's instructions. The gene expression profile for each treated cell population was analyzed using TaqMan® Stem Cell Pluripotency Array Card on ViiA 7 Real-Time PCR System (Applied Biosystems). Each reaction sample was dispensed into loading wells on the array card and centrifuged twice at 336×g for 1 min each time, sealed, and placed in the thermal cycler. The following cycling conditions were used for all array card applications: 45° C. for 10 min, 94° C. for 10 min, and 40 cycles of 94° C. for 30 s followed by 60° C. for 1 min. Array data were normalized to 18S RNA and GAPDH and comparisons were performed using data analysis 2.0 software (Applied Biosystems).
# Rapid accumulation of the cell stress marker p53 (FIG. 10d) and its transcriptional target p21 (FIG. 10e) were used to further distinguish differentiation induction from cellular toxicity.
# [4] = system: neoplastic hPSCs (v1H9-Oct4-GFP); experiment: Flow cytometry of Oct4+ cells in neoplastic hPSC; format: cell-based, human; conditions: three concentrations; compared with BMP4 differentiation controls
# AML LSCs = experiment: Xenotransplantation of compound-treated AML cells into NSG mice; format: in vivo, human; conditions: 10 μM, cells treated 24 h before transplantation
# Method: (§2) NOD.Cg-Prkdc^scid ll2rg^tm1Wjl/SzJ adult mice (NSG) were sub-lethally irradiated with 315 rads 24 hours prior transplantation. 0.8-1.0×10^7 AML MNCs or 1.5-1.8×10^5 CB lin− hematopoietic cells treated with compound or DMSO-vehicle for 24 h were injected via tail vein (IV). After 6-10 weeks, animals were culled, and the BM and spleen were analyzed for the presence of human cells by flow cytometry (LSRII, BD) and data was analyzed using FlowJo software (Tree Star Inc). For secondary HSPC transplants, equal number of engrafted human cells from CB lin− transplants were injected IV in adult irradiated NSG mice as described for primary transplants.
# (§3) To delineate whether the inhibition of AML-blasts detected in vitro was due to the compounds affecting the neoplastic stem cell compartment, xenotransplantation studies (Dick, 2008) that functionally define LSCs and hematopoietic stem cells (HSCs) were conducted (FIG. 12).
# neoplastic hPSCs [5] = experiment: p53 and p21 staining of neoplastic hPSC; format: cell-based, human; conditions: 24 h; compounds at 10 μM
# Description: Antibodies used for immunocytochemistry were the following: Oct3/4 (BD Trunsduction Laboratories, cat#611203), Sox2 (R&D, cat#AF2018). To detect human hematopoietic cells, Pacific Blue−, PE−, APC− or FITC labeled anti-human CD45 was used (BD Biosciences). FITC anti-CD33, PE anti-CD13, FITC anti-CD41a, FITC anti-HLA DR, and PE anti-CD19 antibodies were obtained from BD Pharmingen. PE anti-CD14, PE anti-CD15 and PE anti-GlyA were acquired from Immunotech Beckman Coulter. To determine pluripotency, PE anti-SSEA3 (BD Biosciences) and PE- or AlexaFluor488 anti-Oct4 (BD Biosciences). Rabbit anti-human dopamine receptor antibodies; DRD1 (Cat#324390), DRD2 (Cat#324393), DRD3 (Cat#324402), DRD4 (Cat#324405) and DRD5 (Cat#324408) were sourced from EMD Chemical. Anti-rabbit Alexa-Fluor-488 (Molecular Probes) was used as the secondary antibody. Primary anti-p53 (Cat#2527) and anti-p21 (Cat#2947) rabbit IgG sourced from Cell Signaling Technology were used to stain fixed and permeabilized cells. Anti-rabbit alexa-Fluor-546 (Molecular Probes) was used as the secondary antibody. For breast tumor staining, APC anti-CD44 and PE-CD24 were sourced from BD Pharmingen.
# [6] = system: HL-60, MV4-11 and OCI-AML3; experiment: Cytotoxicity to leukemic cell lines (normalized cell number, 72 h); format: cell-based; conditions: 10 μM
# Method: (§4) All three lines are leukemic cell lines. HL-60 was derived from promyelocytic AML whereas MV 4-11 and OCI-AML3 are representative of AML. Each compound was incubated with the cells for 72 h. The control was DMSO (ie the vehicle used for the compound) for 72 h. Each condition had three replicates.
# The dopamine receptor antagonist and phenothiazine-related compound chlorpromazine was also investigated for effects on the AML cell lines HL-60, MV4-11 and OCI-AML3. Testing was performed as set out in Example 1.
# [7] = system: primary AML cells (AML blast CFU); experiment: Methylcellulose blast-CFU assay, primary AML cells; format: cell-based, human; conditions: for AML-blast CFU potential / formation: 24 h treatment before plating, salinomycin at 1 μM and 10 μM
# Description: as §1
# HSPCs / HSCs (CB lin-) = conditions: in vivo
# Method: as §2, §3
# [8] = system: normal HSCs / HSPC (CB lin-); experiment: Methylcellulose colony-forming assay, normal HSC/HSPC; format: cell-based, human; conditions: for HSPC CFU potential: 24 h treatment before plating, 0.1, 1, 10 μM tested
# Method: Normal HSCs and progenitors were sourced from either mobilized peripheral blood or umbilical cord blood of health patients.
# Patient HSPC and AML samples were treated with compound or DMSO-vehicle (0.1%) for 24 h prior to CFU plating or xenotransplantation studies.
# AML patient or CB lin− cells were cultured 24 hours in the presence of compound or DMSO-vehicle (0.1%) control. […] CB lin− cells were plated at 1000 cells/mL in Methocult GF H4434 (Stem Cell Technologies). Colonies were scored after 14 days of culture using standard morphological criteria.
# [9] = system: v1O4 cells (v1H9-Oct4-GFP); experiment: Library screen on variant neoplastic stem cells (LOP and cell count); format: cell-based, human; conditions: for hit: loss of pluripotency and reduction in cell counts: 10 μM or 1 μM, 72 hours, Z-score more than 3 SD
# Method: Compounds that reduced cell counts below 100 were classified as highly toxic and not considered as useful.
# Briefly, v1O4 cells were seeded into Matrigel-coated 96 well plates (5000 cells/well) containing mouse embryonic fibroblast conditioned media (MEFCM) supplemented with 8 ng/mL bFGF, and treated for 72 hours with compounds dissolved in DMSO. The final concentration of each compound used in treatment was either 10 μM or 1 μM (n=3). Control wells were treated with 0.1% DMSO (low control) or 100 ng/ml BMP4 (high control to induce LOP). At the end of 72 hours, cells were fixed, stained with Hoechst and imaged by automated microscopy. GFP intensity and Hoechst signal were quantified as measures of LOP and cell count, respectively, and compounds with a Z-score of more than 3 standard deviations from the mean for reduced cell count and LOP were chosen as hits.
# [10] = system: HL-60, OCI-AML2 and OCI-AML3; experiment: Cytotoxicity of DR agonists/antagonists against AML cell lines; format: cell-based; conditions: 72 h; CLOZ at higher concentrations
# Method: as §4
# A series of dopamine receptor agonists, D3-antagonists, DR1 & 5-antagonists and multi-receptor antagonists were tested for cytotoxicity against three AML cell lines HL-60, OCI-AML2 and OCI-AML3. Testing was performed as set out in Example 1.
# [11] = system: v1O4 cells versus H9 cells; experiment: Dose-response cell counts, v1O4 versus H9 (selective-activity potency ratio); format: cell-based, human; conditions: single 10 μM concentration point; selective at other concentrations
# Method: The first step in the screening process, the primary screen, is shown in FIG. 21, step 1 and is also described in FIG. 17 and Example 13. […] These compounds then undergo a further set of analysis described in FIG. 21, step 2. […] 8- or 10-point dilutions for each compound are tested on variant neoplastic stem cells (V1O4) and normal stem cells (H9 cells) cells to generate dose-response curves. […] Dose response data were fit with a 4-parameter Hill equation to derive EC50, slopes, min and max values using IDBS ActivityBase software. The EC50 values are then used to calculate a selective-activity potency ratio (H9 EC50/v1O4 EC50). […] The efficacy of each compound can also be quantified by analysis if the derived min value from the 4-parameter Hill fit. An alternative metric for selective activity is an efficacy comparison. Selective EFFICACY=H9−FittedMin−v1O4−FittedMin.
# Selectivity activity ratios [EC50 (v1O4)/EC50 (H9)] were calculated as discussed in Example 15 for a number of compounds screened using the methods described herein.
# [12] = sorted patient AML cells, 24 h treatment
compound,measurement,setting,value
"CSc1ccc2c(c1)N(CCC1CCCCN1C)c1ccccc1S2 (racemic) [thioridazine, 10-{2-[(RS)-1-Methylpiperidin-2-yl]ethyl}-2-methylsulfanylphenothiazine]",induction of apoptosis / cell death,AML-OCI2 and AML-OCI3 [1],exerts its effects on these cell lines through cell death
same,number of AML cells,AML-OCI2 and AML-OCI3 [2],reduced the number of AML cells
same,differentiation-associated genes upregulated,neoplastic hPSCs [3],21 of 50
same,cell number and levels of Oct4 in neoplastic hPSCs,[4],reduce levels of Oct4 below BMP4 differentiation controls
same,AML LSC capacity (CD45+ CD33+ blast engraftment),AML LSCs,significantly reduce leukemic disease-initiating AML LSCs
same,accumulation of p53 and p21,neoplastic hPSCs [5],no accumulation of p53 or p21
same,normalized cell number / toxicity,[6],reduced to almost zero
same,number of AML CFU blast colonies,"[7]; 10 μM, control about 22, at least 14 days",1.6 blast colonies
same,AML-blast CFU potential / formation,[7],reduced AML-blast CFU formation
same,"blast-CFU generation, DR+ subfraction",[7]; [12],reduction in blast-CFU generation
same,"blast-CFU generation, DR− subfraction",[7]; [12],no reduction
same,HSC self-renewal,HSPCs / HSCs (CB lin-),did not affect HSC self-renewal
same,colony forming potential of normal HSCs,"[8]; 10 μM, DMSO control about 100, at least 14 days",about 66 total colonies
same,HSPC CFU potential,[8],little effect on HSPC CFU potential
same,hit: loss of pluripotency and reduction in cell counts,[9],identified as a hit
same,signs of cell stress/death (Hoechst nuclear stain),"[9]; 10 μM, 3-day treatment",less signs of cell stress/death than cells treated with thiostrepton
same,cytotoxicity of AML cell lines,[10],significant effect on cytotoxicity
"Br.CCCN(CCC)[C@@H]1CCc2ccc(O)cc2C1 [7OH-DPAT, R(+)-7-Hydroxy-DPAT hydrobromide]",number of AML cells,AML-OCI2 and AML-OCI3 [2],increased the number of AML cells
Nc1nc2nn[nH]c2c(=O)[nH]1 [8-azaguanine],selectivity for cancer stem cells at a single concentration point,[11],would have not be considered selective for cancer stem cells
Cn1cc(C2=C(c3cn(CCCSC(=N)N)c4ccccc34)C(=O)NC2=O)c2ccccc21 [31-8220],selectivity for cancer stem cells at a single concentration point,[11],would have not be considered selective for cancer stem cells
"Oc1cc2c(cc1O)[C@@H](c1ccccc1)CNCC2 [SKF38393, (R)-(+)-SKF-38393 hydrochloride]",number of AML cells,AML-OCI2 and AML-OCI3 [2],significant reduction in AML cell number
"CN(C)CCCN1c2ccccc2Sc2ccc(Cl)cc21 [chlorpromazine, Chlorpromazine hydrochloride]",number of AML cells,AML-OCI2 and AML-OCI3 [2],reduced the number of AML cells
same,normalized cell number / toxicity,[6],toxic to AML cell lines
same,hit: loss of pluripotency and reduction in cell counts,[9],did not have a comparable effect on v1O4 cells
same,cytotoxicity of AML cell lines,[10],significant effect on cytotoxicity
"CN1CCN(C2=Nc3cc(Cl)ccc3Nc3ccccc32)CC1 [clozapine, Clozapine]",cytotoxicity of AML cell lines,[10],significant effect on cytotoxicity
COc1cc([C@@H]2c3cc4c(cc3[C@@H](O[C@@H]3O[C@@H]5CO[C@@H](C)O[C@H]5[C@H](O)[C@H]3O)[C@H]3COC(=O)[C@H]23)OCO4)cc(OC)c1O [etoposide],accumulation of p53 and p21,neoplastic hPSCs [5],high levels of p53 and p21
OCCN1CCN(CCCN2c3ccccc3Sc3ccc(C(F)(F)F)cc32)CC1 [fluphenazine],hit: loss of pluripotency and reduction in cell counts,[9],identified as hits
OC(c1cc(C(F)(F)F)nc2c(C(F)(F)F)cccc12)C1CCCCN1 (stereo not shown) [mefloquine],cell number and levels of Oct4 in neoplastic hPSCs,[4],reductions in cell number and the levels of Oct4
same,AML LSC capacity (CD45+ CD33+ blast engraftment),AML LSCs,ineffective in reducing AML LSC capacity
same,AML-blast CFU potential / formation,[7],reduced AML-blast CFU formation
same,HSPC CFU potential,[8],little effect on HSPC CFU potential
CCCCc1ccc2[nH]c(NC(=O)OC)nc2c1 [parbendazole],selectivity for cancer stem cells at a single concentration point,[11],would have not be considered selective for cancer stem cells
OCCN1CCN(CCCN2c3ccccc3Sc3ccc(Cl)cc32)CC1 [perphenazine],hit: loss of pluripotency and reduction in cell counts,[9],identified as hits
CN1CCN(CCCN2c3ccccc3Sc3ccc(Cl)cc32)CC1 [prochlorperazine],hit: loss of pluripotency and reduction in cell counts,[9],identified as hits
CC[C@@H](C(=O)[C@@H](C)[C@@H](O)[C@H](C)[C@@H]1O[C@@H]([C@@H](CC)C(=O)O)CC[C@@H]1C)[C@H]1O[C@]2(C=C[C@@H](O)[C@]3(CC[C@@](C)([C@H]4CC[C@](O)(CC)[C@H](C)O4)O3)O2)[C@H](C)C[C@@H]1C [salinomycin],AML-blast CFU potential / formation,[7],reduced AML-blast CFU potential
same,HSPC CFU potential,[8],reduced HSPC CFU potential over all doses tested
CN1CCN(CCCN2c3ccccc3Sc3ccc(C(F)(F)F)cc32)CC1 [trifluoperazine],hit: loss of pluripotency and reduction in cell counts,[9],identified as hits
CN(C)CCCN1c2ccccc2Sc2ccc(C(F)(F)F)cc21 [triflupromazine],hit: loss of pluripotency and reduction in cell counts,[9],identified as hits
"BMP4: positive control that induces differentiation / loss of pluripotency, 100 ng/ml",accumulation of p53 and p21,neoplastic hPSCs [5],no accumulation of p53 or p21
